Results published in ChEMBL document CHEMBL1157512, “Anti-HIV-1 protease activity of lanostane triterpenes from the vietnamese mushroom Ganoderma colossum” (J Nat Prod, 2008).

biological target: Protease (Human immunodeficiency virus 1, UniProt Q9YQ12); test: Inhibition of recombinant HIV1 protease
Sequence (Q9YQ12 whole entry): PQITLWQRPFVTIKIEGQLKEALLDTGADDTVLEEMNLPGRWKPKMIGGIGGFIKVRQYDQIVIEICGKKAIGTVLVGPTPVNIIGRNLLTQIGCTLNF

| IC50 [µM] | Structure (SMILES) |
| --- | --- |
| 75.5 | CC(=O)OC[C@]12CC[C@H](O)C(C)(C)[C@@H]1CCC1=C2CC[C@]2(C)[C@@H]([C@H](C)C(O)C/C=C(/C)CO)CC[C@@]12C (stereo partly drawn) [COLOSSOLACTONE A] |
| 15.3 | CC(=O)O[C@@H]1C[C@H]([C@H](C)[C@H]2CC=C(C)C(=O)O2)[C@@]2(C)CCC3=C(CC[C@@H]4C(=C3)C=CC(=O)OC4(C)C)[C@]12C [COLOSSOLACTONE E] |
| 9.28 | CC(=O)O[C@@H]1C[C@H]([C@H](C)[C@H]2CC=C(C)C(=O)O2)[C@@]2(C)CCC3=C(CC[C@]4(O)C(=C3)C=CC(=O)OC4(C)C)[C@]12C [COLOSSOLACTONE G] |
| 58.3 | CC(=O)O[C@@H]1C[C@H]([C@H](C)[C@@H]2OC(=O)C(C)=C[C@H]2O)[C@@]2(C)CCC3=C(CC[C@@H]4C(=C3)C=CC(=O)OC4(C)C)[C@]12C [COLOSSOLACTONE VIII] |
| 24.7 | COC(=O)CC[C@]1(COC(C)=O)C2=C(CC[C@H]1C(C)(C)O)[C@]1(C)CC[C@H]([C@H](C)[C@H]3CC=C(C)C(=O)O3)[C@@]1(C)CC2 [COLOSSOLACTONE VII] |
| > 162 | COC(=O)CC[C@]1(COC(C)=O)C2=CC[C@]3(C)[C@@H]([C@H](C)[C@@H](C/C=C(/C)C(=O)O)OC(C)=O)CC[C@@]3(C)C2=CC[C@H]1C(C)(C)O [COLOSSOLACTONE VI] |
| 14.5 | COC(=O)CC[C@]1(COC(C)=O)C2=C(CC[C@H]1C(C)(C)O)[C@]1(C)CC[C@H]([C@H](C)[C@@H](C/C=C(/C)C(=O)O)OC(C)=O)[C@@]1(C)CC2 [COLOSSOLACTONE V] |
| 10.8 | CC1=CC[C@H]([C@@H](C)[C@H]2CC[C@@]3(C)C4=C(C=C5C=CC(=O)OC(C)(C)[C@@H]5CC4)CC[C@]23C)OC1=O [SCHISANLACTONE A] |
